Read-outs that look alike come from different tables or passages of the source.
Legend:
[1] = cited from earlier work
[2] = topical sustained release composition, at three hours; cited from earlier work
[3] = Pharmacokinetic (bioavailability) study of ibuprofen + ketoprofen nasal spray in healthy adult human subjects, plasma by LC-MS/MS
Method: Pharmacokinetic study to evaluate the bioavailability of the pharmaceutical composition prepared according to the present disclosure.
Blood samples were centrifuged at about 4000 rpm for 10 minutes at 4±2° C. to separate the plasma. The resulting plasma was equally transferred into 2. These aliquots were stored frozen, upright in a freezer within 90 minutes of blood collection time of each sample at a temperature of −70° C. […] until they were analyzed.
Sample values below the LLOQ were reported as Below Quantification Limit (BQL). Pharmacokinetic parameters were calculated using Phoenix® WinNonlin® software (version: 8.3). The following parameters were calculated:
Primary pharmacokinetic parameters: Cmax, AUC0-t and AUC0-∞ Secondary pharmacokinetic parameters: tmax, t1/2, Kel and AUC_% Extrap_obs.

Row | SMILES | peak plasma concentration ([1]; oral ketoprofen, dose 50 mg) | time of peak plasma concentration ([1]; oral ketoprofen, dose 50 mg) | peak plasma concentration of ketoprofen [2] | expected Cmax for the minimum approved oral dose ([1]; oral ibuprofen 200 mg, as reported in the literature) | maximum plasma concentration ([1]; oral ibuprofen, 400 mg) | time of maximum plasma concentration ([1]; oral ibuprofen, 400 mg) | peak plasma concentration ([1]; oral ibuprofen, dose 100 mg) | time of peak plasma concentration ([1]; oral ibuprofen, dose 100 mg) | AUC(0-inf) ([3]; human, in vivo, inhaled or intranasal, AUC0-∞ range over the dose range of the composition, intranasal, dosage unit 0.4-8 mg ibuprofen and 0.025-0.48 mg ketoprofen) | Cmax ([3]; human, in vivo, inhaled or intranasal, plasma Cmax range over the dose range of the composition, intranasal, dosage unit 0.4-8 mg ibuprofen and 0.025-0.48 mg ketoprofen) | Cmax ([3]; human, in vivo, inhaled or intranasal, plasma Cmax, intranasal, 8 sprays (100 μL each), printed as equivalent to 1.816 mg ibuprofen and 0.24 mg ketoprofen) | Cmax lower than expected Cmax of minimum approved oral dose ([3]; intranasal 8 sprays vs oral 200 mg ibuprofen / 12.5 mg ketoprofen)
1 | CC(C(=O)O)c1cccc(C(=O)c2ccccc2)c1 (stereo not drawn) [ketoprofen] | 2.6 µg/mL | 134 min | at most 450 ng/ml | – | – | – | – | – | – | – | – | –
2 | CC(C)Cc1ccc(C(C)C(=O)O)cc1 (stereo not drawn) [ibuprofen] | – | – | – | approximately 17.3 μg/mL | 32.8 µg/mL | 90 min | 9.5 µg/mL | 116 min | 133 to 1920 ng·h/mL | 41.4 to 828 ng/mL | 165 ng/mL | approximately 100 times
